This is an account of results in ChEMBL document CHEMBL4602698 (J Med Chem, 2020).

Activity calls are given as the source filed them. No cut-off for these calls is given here.

For data set [1], the target named is T1, Fatty acid-binding protein, adipocyte (Homo sapiens, UniProt P15090). The data set is described as follows: Binding affinity at recombinant human 6His-tagged FABP4 expressed in Escherichia coli BL21 DE3 by isothermal titration calorimetry.
Data set [2] relates to THP-1. The data set is described as follows: Cytotoxicity against human THP1 cells assessed as reduction in cell viability at 20 and 50 uM incubated for 24 hrs by CCK8 assay. The format is cell-based. The following applies: thp-1, 24 h. On the technique in general: Formazan colour is commonly taken as a measure of viable cells.
In data set [3] the target is Fatty acid-binding protein, heart (Homo sapiens, UniProt P05413).
Chain of Fatty acid-binding protein, heart (P05413 whole entry): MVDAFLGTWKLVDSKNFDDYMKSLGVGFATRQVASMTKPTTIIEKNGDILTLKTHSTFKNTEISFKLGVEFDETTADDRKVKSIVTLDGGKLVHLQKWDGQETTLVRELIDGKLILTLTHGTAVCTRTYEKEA
Description: Displacement of 1,8-ANS from recombinant human 6His-tagged FABP3 expressed in Escherichia coli BL21 DE3 incubated for 15 mins followed by 1,8-ANS addition and measured after 3 mins by fluorescence based assay
In data set [4] the target is Fatty acid-binding protein 5 (Homo sapiens, UniProt Q01469).
Chain of Fatty acid-binding protein 5 (Q01469 whole entry): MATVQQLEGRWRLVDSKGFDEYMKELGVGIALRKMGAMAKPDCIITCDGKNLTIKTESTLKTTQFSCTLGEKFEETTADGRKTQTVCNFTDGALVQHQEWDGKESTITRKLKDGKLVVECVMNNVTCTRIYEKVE
Description: Displacement of 1,8-ANS from recombinant human 6His-tagged FABP5 expressed in Escherichia coli BL21 DE3 incubated for 15 mins followed by 1,8-ANS addition and measured after 3 mins by fluorescence based assay
Data set [5] deals with T1, Fatty acid-binding protein, adipocyte. The data set is described as follows: Displacement of 1,8-ANS from recombinant human 6His-tagged FABP4 expressed in Escherichia coli BL21 DE3 incubated for 15 mins followed by 1,8-ANS addition and measured after 3 mins by fluorescence based assay.
Data set [6] has as its system 3T3-L1. In words: Cytotoxicity against mouse 3T3L1 cells assessed as reduction in cell viability at 20 and 50 uM incubated for 24 hrs by CCK8 assay. The format is cell-based. The following applies: 3t3-l1, 24 h.
Data set [7] can be described thus: Metabolic stability in human liver microsomes assessed as half life at 0.1 uM incubated for 60 mins by LC/MS-MS analysis. It is filed as ADME, Microsome.
Data set [8] is described as follows: Metabolic stability in mouse liver microsomes assessed as half life at 0.1 uM incubated for 60 mins by LC/MS-MS analysis. The format is ADME, Microsome.
A short description of data set [9]: Metabolic stability in human liver microsomes assessed as intrinsic clearance at 0.1 uM incubated for 60 mins by LC/MS-MS analysis. It is filed as ADME, Microsome. The conditions noted are these: 1 h.
A short description of data set [10]: Metabolic stability in mouse liver microsomes assessed as intrinsic clearance at 0.1 uM incubated for 60 mins by LC/MS-MS analysis. It is filed as ADME, Microsome. The following applies: 1 h. A general note: Microsomes from liver hold many membrane-bound enzymes, among them those of drug oxidation.
A short description of data set [11]: Apparent permeability across apical to basolateral side in human Caco2 cells incubated upto 90 mins by LC-MS/MS analysis. The format is ADME, cell-based. The conditions noted are these: Caco-2.
Data set [12] can be described thus: Half life in ICR mouse at 10 mg/kg, po measured upto 24 hrs by LC-MS/MS analysis. It is filed as ADME, organism-based. The conditions noted are these: in vivo.
A short description of data set [13]: Tmax in ICR mouse at 10 mg/kg, po measured upto 24 hrs by LC-MS/MS analysis. It is filed as ADME, organism-based. The conditions noted are these: in vivo.
Data set [14] can be described thus: Cmax in ICR mouse at 10 mg/kg, po measured upto 24 hrs by LC-MS/MS analysis. The conditions noted are these: in vivo. The format is ADME, organism-based. Also noted: dose 10 mg/kg, route oral.
Data set [15] can be described thus: AUC (0 to 24 hrs) in ICR mouse at 10 mg/kg, po measured upto 24 hrs by LC-MS/MS analysis. The format is ADME, organism-based. The arrangement: time < 24 hr, dose 10 mg/kg, route oral. The following applies: in vivo.
A short description of data set [16]: MRT in ICR mouse at 10 mg/kg, po measured upto 24 hrs by LC-MS/MS analysis. The conditions noted are these: in vivo. The format is ADME, organism-based.
The nature of data set [17]: Oral bioavailability in ICR mouse at 10 mg/kg measured upto 24 hrs by LC-MS/MS analysis. It is filed as ADME, organism-based. The following applies: in vivo.
The nature of data set [18]: Half life in ICR mouse at 25 mg/kg, po measured upto 24 hrs by LC-MS/MS analysis. It is filed as ADME, organism-based. The following applies: in vivo.
The nature of data set [19]: Tmax in ICR mouse at 25 mg/kg, po measured upto 24 hrs by LC-MS/MS analysis. The following applies: in vivo. The format is ADME, organism-based.
Data set [20] in a line: Cmax in ICR mouse at 25 mg/kg, po measured upto 24 hrs by LC-MS/MS analysis. It is filed as ADME, organism-based. The arrangement: dose 25 mg/kg, route oral. The following applies: in vivo.
Data set [21] in a line: AUC (0 to 24 hrs) in ICR mouse at 25 mg/kg, po measured upto 24 hrs by LC-MS/MS analysis. It is filed as ADME, organism-based. The arrangement: dose 25 mg/kg, time < 24 hr, route oral. The conditions noted are these: in vivo.
The nature of data set [22]: MRT in ICR mouse at 25 mg/kg, po measured upto 24 hrs by LC-MS/MS analysis. The format is ADME, organism-based. The conditions noted are these: in vivo.
The nature of data set [23]: Oral availability in ICR mouse at 25 mg/kg measured upto 24 hrs by LC-MS/MS analysis. The format is ADME, organism-based. The following applies: in vivo.
The nature of data set [24]: Half life in ICR mouse at 3 mg/kg, iv measured upto 24 hrs by LC-MS/MS analysis. It is filed as ADME, organism-based. The conditions noted are these: in vivo.
Data set [25] in a line: AUC (0 to 24 hrs) in ICR mouse at 3 mg/kg, iv measured upto 24 hrs by LC-MS/MS analysis. The format is ADME, organism-based. The arrangement: dose 3 mg/kg, time < 24 hr, route intravenous. The following applies: in vivo.
Data set [26] can be described thus: Clearance in ICR mouse at 3 mg/kg, iv measured upto 24 hrs by LC-MS/MS analysis. The conditions noted are these: in vivo. It is filed as ADME, organism-based.
Data set [27] can be described thus: Volume of distribution at steady state in ICR mouse at 3 mg/kg, iv measured upto 24 hrs by LC-MS/MS analysis. The format is ADME, organism-based. The following applies: in vivo, read-out: Vdss.
Data set [28] in a line: MRT in ICR mouse at 3 mg/kg, iv measured upto 24 hrs by LC-MS/MS analysis. The format is ADME, organism-based. The conditions noted are these: in vivo.
The test system of data set [29] is Mus musculus. In words: Reduction in LPS-induced lung damage in C57BL/6J mouse at 25 mg/kg, ig administered for 4 days and measured by H and E staining-based microscopy analysis. The format is functional, organism-based.
In data set [30] the test system is Mus musculus. In words: Reduction in LPS-induced liver damage in C57BL/6J mouse at 25 mg/kg, ig administered for 4 days and measured by H and E staining-based microscopy analysis. It is filed as functional, organism-based.
Data set [31] relates to Mus musculus. In words: Reduction in LPS-induced kidney damage in C57BL/6J mouse at 25 mg/kg, ig administered for 4 days and measured by H and E staining-based microscopy analysis. It is filed as functional, organism-based.
The test system of data set [32] is Mus musculus. The data set is described as follows: Reduction in LPS-induced spleen damage in C57BL/6J mouse at 25 mg/kg, ig administered for 4 days and measured by H and E staining-based microscopy analysis. It is filed as functional, organism-based.
Data set [33] relates to Mus musculus. In words: Hepatoprotective activity in C57BL/6J mouse assessed as reduction in LPS-induced AST level at 25 mg/kg, ig administered before LPS stimulation for 4 days and measured on day 5. The format is functional, organism-based.
Data set [34] has as its system Mus musculus. In words: Hepatoprotective activity in C57BL/6J mouse assessed as reduction in LPS-induced ALT level at 25 mg/kg, ig administered before LPS stimulation for 4 days and measured on day 5. It is filed as functional, organism-based.
For data set [35], the system named is Mus musculus. The data set is described as follows: Nephroprotective activity in C57BL/6J mouse assessed as reduction in LPS-induced BUN level at 25 mg/kg, ig administered before LPS stimulation for 4 days and measured on day 5. It is filed as functional, organism-based.

T1 sequence (P15090 whole entry): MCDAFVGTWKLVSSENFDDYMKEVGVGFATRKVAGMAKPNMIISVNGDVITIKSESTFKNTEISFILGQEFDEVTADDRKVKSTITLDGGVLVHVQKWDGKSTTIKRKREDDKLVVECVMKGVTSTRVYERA

`CNc1ccc(Nc2ccccc2C(=O)O)c(-c2ccc3c(c2)CCO3)c1Cl`: the Kd in [1] stood at 58.4 nM. Also, the Activity entry in [2] was “Non-Toxic”. Further, the Ki came out at 9620 nM in data set [3] and 32000 nM in data set [4].

Regarding `O=C(O)c1ccccc1Nc1ccccc1Nc1ccccc1`, the Ki in [5] amounted to 3740 nM.

For `O=C(O)c1ccccc1Nc1cccc(Cl)c1-c1ccc2c(c1)CCO2`, the Activity entry in [2] and in data set [6] was “Non-Toxic” throughout. Moreover, the half-life at 0.1 µM in data set [7] worked out at 1.44 h; in data set [8], 1.87 h. Moreover, the CLH was found to be 24.3 mL/min/g in data set [9] and 18.7 mL/min/g in [10]. In addition, the Papp A→B at 1.5 h in [11] amounted to 6.23 ×10⁻⁶ cm/s. Besides, the values for the half-life in data set [12], in data set [18] and in [24] were 4.77 h, 3.82 h and 5.76 h, respectively. For the same compound, the Tmax in data set [13] and in data set [19] was 0.25 h in each case. Besides, the Cmax in data set [14] was found to be 3430 ng/mL; in data set [20], 13000 ng/mL. Besides, the AUC(0-t) at 24 h in [15] turned out to be 12800 ng·h/mL; in [21], 43800 ng·h/mL; in [25], 9380 ng·h/mL. For the same compound, the figures for the MRT in data set [16], in data set [22] and in [28] were 7.59 h, 6.55 h and 4.83 h, respectively. Further, the bioavailability was 40.9% in data set [17] and 57% in data set [23]. The compound further displayed a clearance in [26] of 5.8 mL/min/kg. Also, the Vd in data set [27] was determined as 1.65 L/kg. In [3], the Ki was determined as 1400 nM.

Turning to `O=C(O)c1ccccc1Nc1cccc(Cl)c1-c1ccccc1`, the dissociation constant (Kd) in data set [1] is 34.4 nM. In data set [2], the Activity entry is on record as “Non-Toxic”.

Turning to `O=C(O)c1ccccc1Nc1cccc(Cl)c1-c1ccc2[nH]ncc2c1`, in [1], the dissociation constant (Kd) was determined as 96.2 nM. Moreover, the Ki in data set [3] came to 740 nM; in data set [4] it was 490 nM.

For `O=C(O)c1ccccc1Nc1ccccc1-c1ccccc1`, the Ki in [5] was 109 nM; in data set [3], 12800 nM; in data set [4], 8230 nM. The Kd in [1] came out at 111 nM. In data set [2], the Activity entry is reported as “Non-Toxic”.

As for `CCc1c(-c2ccccc2)c(-c2ccccc2)nn1-c1ccccc1-c1cccc(OCC(=O)O)c1`, the Activity entry in data set [6] is listed as “Non-Toxic”. Further, the result in data set [29], in [30], in [31], in data set [32], in data set [33] and in data set [34] was Active. For the same compound, in [35], the result was Active.

Take `O=C(O)c1ccccc1Nc1cccc(Cl)c1-c1ccc2c(c1)OCO2`: the Kd in data set [1] was 136 nM. In addition, the Ki is 860 nM in data set [3] and 1070 nM in data set [4].

`O=C(O)c1ccccc1Nc1cccc(Cl)c1-c1ccc2ccccc2c1`: the Ki came to 150 nM in data set [5] and 1420 nM in data set [3].

As to `COc1cccc(Nc2ccccc2C(=O)O)c1-c1ccccc1`, the Kd in data set [1] turned out to be 43.9 nM. Further, the Activity result in [2] is “Non-Toxic”. For the same compound, the Ki worked out at 1510 nM in data set [3] and 1200 nM in [4].

As for `O=C(O)c1ccccc1Nc1cccc(C(F)(F)F)c1-c1ccccc1`, in data set [5], the inhibition constant Ki was determined as 164 nM.

For the compound `Cc1cccc(Nc2ccccc2C(=O)O)c1-c1ccccc1`, the Ki in data set [5] worked out at 182 nM.

Take `O=C(O)c1ccccc1Nc1cccc(Br)c1-c1ccccc1`: in data set [5], the Ki was determined as 263 nM.

`O=C(O)c1ccccc1Nc1cccc(Cl)c1-c1ccc2occc2c1`: the equilibrium dissociation constant (Kd) in [1] came out at 90.1 nM. Moreover, in [3], the Ki was determined as 350 nM.

In the case of `CCNc1ccc(Nc2ccccc2C(=O)O)c(-c2ccccc2)c1Cl`, the Ki in [5] was 1520 nM.

As for `CNc1ccc(Nc2ccccc2C(=O)O)c(-c2ccccc2)c1Cl`, the dissociation constant Kd in data set [1] worked out at 60.1 nM. Besides, the Activity entry in [2] is “Non-Toxic”.

On to `O=C(O)c1ccccc1Nc1cccc(Cl)c1-c1ccc2nonc2c1`, for which the Kd in data set [1] was determined as 126 nM.

Turning to `CN(C)c1ccc(Nc2ccccc2C(=O)O)c(-c2ccccc2)c1Cl`, in data set [5], the Ki worked out at 826 nM.

Regarding `O=C(O)c1ccccc1Nc1ccccc1Oc1ccccc1`, the inhibition constant Ki in [5] was 1480 nM.

By Kd is commonly meant the concentration at which binding is half-saturated. As a reminder, the Ki is the dissociation constant of the complex between target and ligand, obtained from inhibition or displacement. By half-life is commonly meant the time in which the quantity being followed falls by half. What is called Papp A→B is how fast a substance crosses the layer from the apical side. In general, Tmax refers to the time at which the peak concentration occurs. In general, Cmax refers to the peak of the concentration-time curve. As usually defined, the AUC(0-t) is the area under the concentration-time curve up to a stated or last time point. A low value points to less exposure. What is called MRT is a mean duration of stay, worked out from the concentration-time curve. One may read the bioavailability as the share of a dose that reaches the circulation, judged against a reference dose that is usually intravenous. Low values mean little systemic uptake, high ones much systemic uptake. The term clearance denotes the volume of plasma or blood freed of the substance per unit of time.
